Assay results taken from paper PMC7211193, “Evaluation of absorption, distribution, metabolism, and excretion of [^14C]-rucaparib, a poly(ADP-ribose) polymerase inhibitor, in patients with advanced solid tumors” (Investigational New Drugs, 2019).

Key:
[1] = Metabolite profiling in plasma (LC-MS-TopCount); assay type: in vivo, human
Protocol: Plasma samples from six patients were pooled using two methods: (1) A Hamilton pool plasma (0–24 h) for metabolite profile determination was prepared by combining plasma aliquots of a volume proportional to the time interval used for calculating the AUC (AUC0-24h pool) for each patient and (2) four time-point pooling samples were obtained by equal volume pool at 1, 4, 8, and 24 h across six patients. In addition, plasma samples at 1, 8, and 24 h were selected from three patients (Patients 03, 08, and 09) for metabolite profiles analysis to check the individual differences between patients. Samples collected after 24 h post dose were not included in the pooling due to the low radioactivity at later time points. All plasma samples (pooled and from individuals) were extracted at least two times with acetonitrile. All supernatants were evaporated to dryness, and the dried residues were reconstituted in 20% acetonitrile in water containing 0.1% TFA. The sample recovery was obtained by comparing the radioactivity concentrations before and after extraction, and the mean recovery was about 70%.
Aliquots of the supernatants were injected into the HPLC, and the HPLC elutes were collected as fractions at intervals of 30 sec per well into LumaPlate-96 DeepWell microplates (PerkinElmer). Due to the low radioactivity in each plasma sample, metabolite profiles were obtained by TopCount (PerkinElmer) analysis of HPLC elutes. The fractions were dried at room temperature, and then analyzed by a TopCount NXT radiometric microplate reader (PerkinElmer) to obtain metabolite profiles. The supernatants of extracts were also analyzed using an LC-MS method to identify metabolites.
Metabolite profiling and identification were performed on an LC system (Agilent) coupled to an LTQ Orbitrap mass spectrometer (Thermo Electron, Waltham, MA, USA) in combination with offline TopCount (LC-MS-TopCount) or online Radiomatic 625TR (LC-MS-Radiomatic; PerkinElmer). Proposed structures of the metabolites were based on accurate mass (<5 ppm) and comparison of mass spectral data of parent compound rucaparib and metabolite standard M324. The Radiomatic 625TR flow detector, equipped with a 200 μL flow cell, was operated using scintillation cocktail (Ultima-Flo M) delivered at a flow rate of 1 mL/min. Chromatography was done using a Phenomenex (Torrance, CA, USA) Luna Phenyl-Hexyl column (250 × 2 mm, 5 μm, 100 Å) at ambient temperature during the sample analysis. The mobile phase was (A) 0.05% TFA in water and (B) 0.05% TFA in acetonitrile, with a 0.2 mL/min flow rate. The gradient was as follows: 5% B over 2.1 min, to 20% B in 1.0 min, to 35% B in 16.9 min, isocratic at 35% B for 5 min, to 95% B over 5 min, and reduced to 5% B over 1 min, with total run time 45 min.
The abundance of unchanged rucaparib and metabolites identified in plasma, urine, and feces was determined as a percentage of the TRA in the analyzed samples. Percentage of the administered dose of rucaparib and metabolites was calculated in urine and feces (formula A). The concentration of rucaparib and its metabolites in plasma (ng Eq h/mL) was calculated based on the specific activity, TRA, and percentage of peaks (formula B). The AUC0-24h value of rucaparib and its major metabolite M324 in plasma was calculated using both Hamilton method (formula C) and linear trapezoidal method (formula D). • (A) %Doseofmetabolite=TRAinurineorfeces(dpm)÷TRAinadministereddose(dpm)×%metabolitesinmatrix • (B) Metaboliteconcentrationsinplasma(ngEq/mL)=TRAinplasma(dpm/mL)specificactivity(ngEq/dpm)×%metabolitesinthematrix • (C) Hamiltonmethod:AUC0−24h(ngEqh/mL)=concentrationinHamilton(AUC0−24h)pooledplasma(ngEq/mL)×24(h) • (D) Lineartrapezoidalmethod:AUC0−24h(ngEqh/mL)=C1h/2×1h+C1h+C4h/2×(4h−1h)+C4h+C8h/2×(8h−4h)+C8h+C24h/2×(24h−8h)

[2] = Plasma pharmacokinetics of unchanged rucaparib (LC-MS/MS) after a single oral dose of [14C]-rucaparib 600 mg; assay type: in vivo, human
Protocol: Six patients received a single oral dose of [^14C]-rucaparib 600 mg (approximately 5.18 MBq or 140 μCi) on day 1 after fasting for 10 h and were confined at the study site for the collection of blood samples and excreta for a maximum of 12 days.
Blood samples were collected in K2 ethylenediaminetetraacetic acid (K2-EDTA) tubes at the following time points: 0 (predose), 1, 2, 3, 4, 8, 12, 24, 48, 72, 96, 120, and 144 h after administration. Blood samples were taken via an indwelling intravenous catheter or by direct vein puncture into appropriate tubes. Aliquots of blood samples were centrifuged at 1600–2000×g for 10 min at 4 °C, and supernatants were collected for plasma samples. All plasma and blood samples were stored at −70 °C until analysis. Plasma and blood samples were evaluated for total radioactivity (TRA) by liquid scintillation (LSC), parent drug concentrations by liquid chromatography (LC) with tandem mass spectrometry (MS/MS) analyses, and metabolite profiling by LC coupled to diode array ultraviolet (UV) detection and MS or radioactivity detection.
Plasma concentrations of rucaparib were determined by Q^2 Solutions (Ithaca, NY, USA) using a validated LC-MS/MS method as previously described. The concentration range for quantitation was 5–10,000 ng/mL.
Blood and plasma TRA data and the plasma concentration of rucaparib were used to determine the Cmax, tmax, AUC from time zero to time of last measurable concentration (AUC0-t), and AUC from time zero to infinity (AUC0-inf), apparent volume of distribution (Vd/F), apparent clearance (CL/F), and terminal half-life (t1/2). Phoenix WinNonlin software version 6.3 or higher (Certara, Princeton, NJ, USA) was used to run a noncompartmental method analysis on the PK data.

[3] = 0-24 h pooled plasma, N = 6, mean ± SD
[4] = unchanged rucaparib by LC-MS/MS, single oral 600 mg, N = 6, mean ± SD

CNCc1ccc(-c2[nH]c3cc(F)cc4c3c2CCNC4=O)cc1 [Rucaparib, rucaparib]
% Peak (of plasma radioactivity), Hamilton (AUC0-24h) pooled plasma [1, 3]: 64.0 ± 13.7% | Concentration, Hamilton (AUC0-24h) pooled plasma [1, 3]: 335 ± 120 ng Eq/mL | % Peak (of plasma radioactivity), Hamilton (AUC0-24h) pooled plasma ([1]; 0-24 h pooled plasma, N = 6, mean ± SD, listed as rucaparib): 64.0% and ≈ 64% | % Radioactive peaks in individual plasma, Patient 03, 1 h ([1]; Patient 03, 1 h): 75.0% | % Radioactive peaks in individual plasma, Patient 03, 8 h ([1]; Patient 03, 8 h): 66.7% | % Radioactive peaks in individual plasma, Patient 03, 24 h ([1]; Patient 03, 24 h): 36.1% | % Radioactive peaks in individual plasma, Patient 08, 1 h ([1]; Patient 08, 1 h): 92.1% | % Radioactive peaks in individual plasma, Patient 08, 8 h ([1]; Patient 08, 8 h): 68.2% | % Radioactive peaks in individual plasma, Patient 08, 24 h ([1]; Patient 08, 24 h): 38.5% | % Radioactive peaks in individual plasma, Patient 09, 1 h ([1]; Patient 09, 1 h): 84.6% | % Radioactive peaks in individual plasma, Patient 09, 8 h ([1]; Patient 09, 8 h): 82.1% | % Radioactive peaks in individual plasma, Patient 09, 24 h ([1]; Patient 09, 24 h): 56.5% | % Radioactive peaks in individual plasma, Mean ± SD, 1 h ([1]; Patients 03, 08, 09, 1 h): 83.9 ± 8.57% | % Radioactive peaks in individual plasma, Mean ± SD, 8 h ([1]; Patients 03, 08, 09, 8 h): 72.3 ± 8.49% | % Radioactive peaks in individual plasma, Mean ± SD, 24 h ([1]; Patients 03, 08, 09, 24 h): 43.7 ± 11.1% | AUC0-24h, Hamilton (AUC0-24h) pooled plasma ([1]; concentration in 0-24-h pooled sample × 24 h): 8040 ng Eq h/mL | concentration at 1 h ([1]; human, plasma, oral, 600 mg, single pooled sample from all six patients, 1 h, read-out: Mean concentration, time point pooled plasma, 1 h): 317 ng/mL | concentration at 4 h ([1]; human, plasma, oral, 600 mg, single pooled sample from all six patients, 4 h, read-out: Mean concentration, time point pooled plasma, 4 h): 590 ng/mL | concentration at 8 h ([1]; human, plasma, oral, 600 mg, single pooled sample from all six patients, 8 h, read-out: Mean concentration, time point pooled plasma, 8 h): 545 ng/mL | concentration at 24 h ([1]; human, plasma, oral, 600 mg, single pooled sample from all six patients, 24 h, read-out: Mean concentration, time point pooled plasma, 24 h): 151 ng/mL | Mean AUC0-24h, time point pooled plasma ([1]; trapezoidal method from 1, 4, 8, 24 h pools): 9360 ng Eq h/mL | AUC0-24h ratio of unlabeled rucaparib to TRA in plasma ([2]; LC-MS/MS versus LSC): 0.412 | AUC(0-inf) ([2]; human, plasma, unchanged rucaparib by LC-MS/MS, single oral 600 mg, N = 6, mean ± SD, read-out: AUC0-inf, rucaparib concentration in plasma): 9340 ± 3480 ng·h/mL | AUC(0-t) ([2]; human, plasma, unchanged rucaparib by LC-MS/MS, single oral 600 mg, N = 6, mean ± SD, read-out: AUC0-t, rucaparib concentration in plasma): 8950 ± 3230 ng·h/mL | Cmax ([2]; human, plasma, unchanged rucaparib by LC-MS/MS, single oral 600 mg, N = 6, mean ± SD, read-out: Cmax, rucaparib concentration in plasma): 428 ± 154 ng/mL | Vd/F ([2]; human, plasma, unchanged rucaparib by LC-MS/MS, single oral 600 mg, N = 6, mean ± SD, read-out: Vd/F, rucaparib concentration in plasma): 2300 ± 490 L | AUC0-24h/AUC0-inf ratio, plasma unchanged rucaparib ([2]; in vivo): 0.537 | Mean CL/F of rucaparib relative to that of TRA ([2]; plasma): approximately 3.8 fold | Mean Vd/F of rucaparib relative to that of TRA ([2]; plasma): ~2.8 fold | CL/F, rucaparib concentration in plasma [2, 4]: 73.9 ± 45.5 L/h | t1/2, rucaparib concentration in plasma [2, 4]: 25.9 ± 10.1 h | t1/2, rucaparib concentration in plasma ([2]; unchanged rucaparib by LC-MS/MS, single oral 600 mg, N = 6, mean ± SD, listed as rucaparib): > 25 h | tmax, rucaparib concentration in plasma ([2]; unchanged rucaparib by LC-MS/MS, single oral 600 mg, N = 6, median (range)): 4 (0.933–8.00) h
